From patent US11634366B2, “Plant growth enhancer using carbon dioxide to increase plant yield and method of increasing plant yield” (Innovations for World Nutrition, LLC, priority 2020, dated 2023)

Columns and labels:
[1] = system: Oryza sativa long grain rice variety LaKast; test: Example 2 carbon dioxide in air bubbled into root zone of paddy rice: roots and foliage at 24 days; format: in vivo; conditions: for Dry Foliage Weight: total of ten plants; for Dry Root Weight: total of ten plants of one container; for % Difference in Total Nitrogen Uptake: vs air
Experimental: (§1) Example 2 tests were conducted to test whether carbon dioxide alone delivered to the roots of rice plants improves the rough rice yield and the root growth. For this example Oryza sativa long grain rice variety LaKast™ seed treated with CruiserMaxx® (an insecticide and fungicide) was carefully selected as representative of all rice grown commercially and provides an excellent model for testing commercial rice.
(§2) For the Example 2 tests, carbon dioxide diluted with air in selected amounts was bubbled into the root zone of paddy rice. The rice was planted in 18.9 L (5 gallon) containers which are 30.5 cm (12 inches) in diameter and 35.6 cm (14 inches) deep, and sets of 8 containers all received the same gas mixture. The tests were designed to end after 17 weeks, but some containers were removed earlier to visually check the roots for amount of growth.
(§3) For the Example 2 tests, the following gas mixtures were used: Air • 0.2% carbon dioxide in air • 0.5% carbon dioxide in air • 1.0% carbon dioxide in air • 2.0% carbon dioxide in air • 5.0% carbon dioxide in air • Note: 0.2% is approximately 5 times the amount of carbon dioxide currently found naturally in air
(§4) 18.9 L (5 gallon) containers were prepared by placing an aquatic gas diffuser attached to tubing at the bottom of each container and then filling the container 10.2 cm (4 inches) from the top with sieved top soil. The containers were placed on tables in a greenhouse in groups of eight so that all received approximately the same amount of light. Each group of eight containers was attached to a tank of gas with the gas being supplied through a regulator to a flow meter and then to a set of eight valves with each one controlling the gas mixture to a single container. A total of forty-eight containers were prepared, and twenty-four containers were placed on each table. Starter phosphorus was added to the soil by mixing 1.7 g of triple super phosphate into the top 7.6 cm (3 inches) of soil in each container. Soil was also given addition starter fertilizer by dissolving 150 g of urea (for nitrogen), 132 g of potassium chloride (for potassium), and 1236 g of Epsom salts (magnesium sulfate heptahydrate for magnesium) in 12 liters of water. Each container was then given 200 mL of this solution. Later, zinc was added using zinc sulfate. The containers were flooded to 1.3 cm (0.5 inches) above the surface of the soil using collected rainwater. On May 20, 2016, the rice seed was presoaked for 24 hours and then drained for 24 hours was dropped on the surface of the soil in each container. After the rice was established, the plants were thinned to 10 plants per container. At a later date, the plants were thinned again to six plants per container. The gas mixtures to the containers were started on May 20, 2016 and adjusted to an initial flow meter setting of 42.5 liters/hr. (1.5 ft^3/hr.) with a steady flow of bubbles in each container. The flow rate was turned down to 14.2 liters/hr. (0.5 ft^3/hr.) on Jun. 14, 2016. The gas flow was supplied each weekday from 8:00 am to noon. During the testing, fans in the greenhouse created a constant airflow to prevent carbon dioxide concentration around a particular group of plants.
On May 25, 2016, 10.6 g of zinc sulfate was dissolved in 10 L of water and each container was given 200 mL of this solution. As the plants grew, the flood waters were gradually raised until they reached a depth of three inches above the soil surface. A flood water depth of 5.1 to 7.6 cm (2 to 3 inches) was maintained for the remainder of the test. On Jun. 13, 2016, one front container (containing 10 plants each) for each level of carbon dioxide was withdrawn for measurement and the plants were gently removed and thoroughly cleaned. The plants and roots were then dried in an oven overnight at 80° C. The next day, the roots were trimmed and weighed. Table 6 presents the total root weights and total foliage weights of the ten plants for each container of plants. […]

[2] = system: Oryza sativa long grain rice variety LaKast; test: Example 2 carbon dioxide in air bubbled into root zone of paddy rice: root weights and rough rice yield at harvest; format: in vivo; conditions: for % Difference (root weight vs Air) / Dry Root Weight: at harvest; for Dry Root Weight: average of two containers; for Rough Rice Yield Weight: dry weight at harvest
Experimental: as §1, §2, §3, §4
On Jun. 20, 2016, the rice plants of Example 2 were thinned to six plants per container. On Aug. 1, 2016, additional nitrogen and triple super phosphate (TSP) was added to each container at the rate of 0.57 g TSP in all containers, 0.87 g of urea per container being fed normal air, and 2.27 g ammonium bicarbonate (equivalent nitrogen content as 0.87 g of urea) for the rest of the containers. This introduction of nitrogen and phosphates was to ensure no limitation in nitrogen and phosphorus for the plants and therefore ensure the testing validity of introducing carbon dioxide as a gas to the roots of the plants.
The rough rice for the Example 2 tests was harvested on Sep. 19, 2016. The rough rice was separated, and dried for seven days at 40° C. […]

O=C=O [CO2, carbon dioxide]
% Difference of Root Weight as Compared to Air ([1]; 0.5% CO2 in air): 0% | Total Nitrogen Uptake by Foliage ([1]; 0.5% CO2 in air): 0.156 g | Dry Foliage Weight ([1]; 0.5% CO2 in air): 3.48 g | Dry Root Weight ([1]; 0.5% CO2 in air): 1.26 g | % Difference in Total Nitrogen Uptake ([1]; 0.5% CO2 in air): 8.33% | Total Nitrogen Uptake by Foliage ([1]; 2.0% CO2 in air): 0.151 g | Dry Foliage Weight ([1]; 2.0% CO2 in air): 3.43 g | Dry Root Weight ([1]; 2.0% CO2 in air): 2.08 g | % Difference in Total Nitrogen Uptake ([1]; 2.0% CO2 in air): 4.86% | weight of the foliage compared with container receiving solely air ([1]; each container receiving elevated carbon dioxide, in words): slightly more | % Difference (rough rice yield vs Air) ([2]; 0.2% CO2 in air): 2.9% | % Difference (root weight vs Air) ([2]; 0.2% CO2 in air): +35.8% | Dry Root Weight ([2]; 0.2% CO2 in air): 62.5 g | Rough Rice Yield Weight ([2]; 0.2% CO2 in air): 91.5 g | % Difference (rough rice yield vs Air) ([2]; 0.5% CO2 in air): 6.1% | % Difference (root weight vs Air) ([2]; 0.5% CO2 in air): +6.4% | Dry Root Weight ([2]; 0.5% CO2 in air): 49.0 g | Rough Rice Yield Weight ([2]; 0.5% CO2 in air): 94.3 g | % Difference (rough rice yield vs Air) ([2]; 1.0% CO2 in air): 11.9% | % Difference (root weight vs Air) ([2]; 1.0% CO2 in air): +9.6% | Dry Root Weight ([2]; 1.0% CO2 in air): 50.4 g | Rough Rice Yield Weight ([2]; 1.0% CO2 in air): 99.5 g | % Difference (rough rice yield vs Air) ([2]; 2.0% CO2 in air): 11.9% | % Difference (root weight vs Air) ([2]; 2.0% CO2 in air): +11.1% | Dry Root Weight ([2]; 2.0% CO2 in air): 51.1 g | Rough Rice Yield Weight ([2]; 2.0% CO2 in air): 99.5 g | % Difference (rough rice yield vs Air) ([2]; 5.0% CO2 in air): −3.0% | % Difference (root weight vs Air) ([2]; 5.0% CO2 in air): +20.7% | Dry Root Weight ([2]; 5.0% CO2 in air): 55.5 g | Rough Rice Yield Weight ([2]; 5.0% CO2 in air): 86.2 g | average root weights at harvest compared with plants receiving just air ([2]; all containers receiving elevated carbon dioxide at roots, in words): higher | grain yields compared with plants receiving just air ([2]; elevated carbon dioxide, with the exception of 5.0% carbon dioxide mixed with air, in words): higher
